Experimental data reported in PubChem BioAssay AID248 (DTP/NCI, 2004).
Where “and” joins values, the source holds several entries; their conditions need not be identical. Equal values may be shown once. Toxic doses and inconclusive results are not listed. No stated cut-off is given here; in the data, active means T/C of 150% or more; inactive means T/C below 125%.

Test system: L1210 leukemia ip in BDF1 mice, survival T/C
Experiment: NCI In Vivo Anticancer Drug Screen. Data for tumor model L1210 Leukemia (intraperitoneal) in B6D2F1 (BDF1) mice
Conditions: endpoint: mean survival time, higher = longer survival
In short: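 Antitumor effect is assessed in tumor-bearing animals. Survival in the compound arm is compared with a vehicle-dosed control arm and expressed as their quotient.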

[1] = dose: 50.0 mg/kg/injection, schedule: Q01DX001 (ip), vehicle: saline
[2] = dose: 100.0 mg/kg/injection, schedule: Q01DX001 (ip), vehicle: saline
[3] = dose: 200.0 mg/kg/injection, schedule: Q01DX001 (ip), vehicle: saline
[4] = dose: 400.0 mg/kg/injection, schedule: Q01DX001 (ip), vehicle: saline
[5] = dose: 100.0 mg/kg/injection, schedule: Q04DX002 (ip), vehicle: Klucel (hydroxypropylcellulose) (HPC)
[6] = dose: 200.0 mg/kg/injection, schedule: Q04DX002 (ip), vehicle: Klucel (hydroxypropylcellulose) (HPC)
[7] = dose: 400.0 mg/kg/injection, schedule: Q04DX002 (ip), vehicle: Klucel (hydroxypropylcellulose) (HPC)
[8] = dose: 100.0 mg/kg/injection, schedule: Q04DX003 (ip), vehicle: saline with Tween-80
[9] = dose: 200.0 mg/kg/injection, schedule: Q04DX003 (ip), vehicle: saline with Tween-80
[10] = dose: 100.0 mg/kg/injection, schedule: Q01DX001 (ip), vehicle: carboxymethylcellulose (CMC)
[11] = dose: 200.0 mg/kg/injection, schedule: Q01DX001 (ip), vehicle: carboxymethylcellulose (CMC)
[12] = dose: 100.0 mg/kg/injection, schedule: Q01DX009 (ip), vehicle: saline with Tween-80
[13] = dose: 200.0 mg/kg/injection, schedule: Q01DX009 (ip), vehicle: saline with Tween-80
[14] = dose: 400.0 mg/kg/injection, schedule: Q04DX003 (ip), vehicle: saline with Tween-80
[15] = dose: 100.0 mg/kg/injection, schedule: Q01DX001 (ip), vehicle: saline with Tween-80
[16] = dose: 100.0 mg/kg/injection, schedule: Q01DX009 (ip), vehicle: Klucel (hydroxypropylcellulose) (HPC)
[17] = dose: 200.0 mg/kg/injection, schedule: Q01DX009 (ip), vehicle: Klucel (hydroxypropylcellulose) (HPC)
[18] = dose: 400.0 mg/kg/injection, schedule: Q01DX009 (ip), vehicle: Klucel (hydroxypropylcellulose) (HPC)

Measured: T/C

C1=CC(=P(c2ccccc2)(c2ccccc2)c2ccccc2)C=C1
inactive: dose: 30.0 mg/kg/injection, schedule: Q01DX015 (ip), vehicle: saline 95 % of control | [1] 92 % of control | dose: 60.0 mg/kg/injection, schedule: Q01DX015 (ip), vehicle: saline 89 % of control | [2] 97 % of control | dose: 120.0 mg/kg/injection, schedule: Q01DX015 (ip), vehicle: saline 91 % of control | [3] 98 % of control | dose: 240.0 mg/kg/injection, schedule: Q01DX015 (ip), vehicle: saline 91 % of control | [4] 97 % of control

CCCNC(=O)OC1CCS(=O)(=O)C1 (centres undefined)
inactive: [5] 95 % of control | [6] 100 % of control | [7] 95 % of control

Cc1cc(C)c(O)c(CN(C)C)c1
inactive: [8] 101 % of control | [9] 98 % of control

CC(=O)CC(=O)C(F)(F)F.CC(=O)CC(=O)C(F)(F)F.CC(=O)CC(=O)C(F)(F)F.CC(=O)CC(=O)C(F)(F)F.[Th]
inactive: dose: 100.0 mg/kg/injection, schedule: Q01DX005 (ip), vehicle: gum acacia 90 % of control | dose: 100.0 mg/kg/injection, schedule: Q04DX002 (ip), vehicle: gum acacia 96 % of control | dose: 200.0 mg/kg/injection, schedule: Q01DX005 (ip), vehicle: gum acacia 93 % of control | dose: 200.0 mg/kg/injection, schedule: Q01DX009 (ip), vehicle: gum acacia 101 % of control | dose: 200.0 mg/kg/injection, schedule: Q04DX002 (ip), vehicle: gum acacia 96 % of control | dose: 400.0 mg/kg/injection, schedule: Q01DX005 (ip), vehicle: gum acacia 90 % of control | dose: 400.0 mg/kg/injection, schedule: Q01DX009 (ip), vehicle: gum acacia 94 % of control | dose: 400.0 mg/kg/injection, schedule: Q04DX002 (ip), vehicle: gum acacia 107 % of control

c1ccc(-c2ccns2)cc1
inactive: dose: 50.0 mg/kg/injection, schedule: Q01DX001 (ip), vehicle: carboxymethylcellulose (CMC) 89 % of control | [10] 89 % of control | [11] 93 % of control

OC1COC(n2cnc3c(=S)nc[nH]c32)C(O)C1O (centres undefined)
inactive: dose: 5.0 mg/kg/injection, schedule: Q01DX001 (ip), vehicle: saline 98 % of control | dose: 10.0 mg/kg/injection, schedule: Q01DX001 (ip), vehicle: saline 102 % of control | dose: 20.0 mg/kg/injection, schedule: Q01DX001 (ip), vehicle: saline 98 % of control | dose: 40.0 mg/kg/injection, schedule: Q01DX001 (ip), vehicle: saline 96 % of control | [1] 115 % of control | dose: 80.0 mg/kg/injection, schedule: Q01DX001 (ip), vehicle: saline 98 % of control | [2] 105 % of control and 100 % of control | [3] 111 % of control and 100 % of control and 101 % of control | [4] 101 % of control and 103 % of control

O=C1CCCCC1CC1(O)C(=O)NC2CCC(Br)CC21 (centres undefined)
inactive: [6] 100 % of control | [7] 92 % of control

Cc1noc(/N=C(/C(=N/c2onc(C)c2C)c2ccccc2)c2ccccc2)c1C
inactive: dose: 100.0 mg/kg/injection, schedule: Q04DX003 (ip), vehicle: Klucel (hydroxypropylcellulose) (HPC) 97 % of control | dose: 200.0 mg/kg/injection, schedule: Q04DX003 (ip), vehicle: Klucel (hydroxypropylcellulose) (HPC) 103 % of control | dose: 400.0 mg/kg/injection, schedule: Q04DX003 (ip), vehicle: Klucel (hydroxypropylcellulose) (HPC) 97 % of control

Cc1ccc(COC(=O)Nc2ccc(Cl)c([N+](=O)[O-])c2)cc1
inactive: [12] 92 % of control | [8] 102 % of control | [13] 100 % of control | [9] 100 % of control | dose: 400.0 mg/kg/injection, schedule: Q01DX009 (ip), vehicle: saline with Tween-80 95 % of control | [14] 100 % of control

OCC1OC(n2cc(Br)c3c(=S)nc[nH]c32)C(O)C1O (centres undefined)
inactive: [10] 104 % of control | [11] 110 % of control | dose: 400.0 mg/kg/injection, schedule: Q01DX001 (ip), vehicle: carboxymethylcellulose (CMC) 106 % of control

O=C(O)Cn1c(=O)n(CC(=O)O)c2ccccc21
inactive: [8] 93 % of control | [9] 98 % of control | [14] 98 % of control

Cc1nc(N)[nH]c(=O)c1CCCNC(=O)c1ccc(C(=O)O)cc1
inactive: dose: 25.0 mg/kg/injection, schedule: Q01DX001 (ip), vehicle: saline with Tween-80 90 % of control | dose: 50.0 mg/kg/injection, schedule: Q01DX001 (ip), vehicle: saline with Tween-80 97 % of control | [15] 93 % of control

CCc1c(C)nc(N)[nH]c1=O
inactive: [8] 106 % of control | [9] 106 % of control

NC(=S)N/N=C/c1ccccc1
inactive: dose: 75.0 mg/kg/injection, schedule: Q01DX001 (ip), vehicle: other 103 % of control | dose: 150.0 mg/kg/injection, schedule: Q01DX001 (ip), vehicle: other 105 % of control

COC(=O)c1n[nH]c(C)c1N=NN1CCOCC1
inactive: dose: 75.0 mg/kg/injection, schedule: Q01DX001 (ip), vehicle: saline 105 % of control | dose: 150.0 mg/kg/injection, schedule: Q01DX001 (ip), vehicle: saline 103 % of control | dose: 300.0 mg/kg/injection, schedule: Q01DX001 (ip), vehicle: saline 105 % of control

COc1ccc([N+](=O)[O-])cc1NC(=O)c1ccc(Cl)cc1
inactive: dose: 50.0 mg/kg/injection, schedule: Q01DX009 (ip), vehicle: Klucel (hydroxypropylcellulose) (HPC) 96 % of control | [16] 94 % of control | [17] 95 % of control | [18] 94 % of control

O=c1ccc2cc3oc(=O)ccc3cc2o1
inactive: [15] 90 % of control | dose: 200.0 mg/kg/injection, schedule: Q01DX001 (ip), vehicle: saline with Tween-80 97 % of control | dose: 400.0 mg/kg/injection, schedule: Q01DX001 (ip), vehicle: saline with Tween-80 90 % of control

O=C1c2ccccc2-c2c3c(cc4ccnc1c24)OCO3
inactive: dose: 100.0 mg/kg/injection, schedule: Q01DX001 (ip), vehicle: Klucel (hydroxypropylcellulose) (HPC) 93 % of control | dose: 200.0 mg/kg/injection, schedule: Q01DX001 (ip), vehicle: Klucel (hydroxypropylcellulose) (HPC) 96 % of control | dose: 400.0 mg/kg/injection, schedule: Q01DX001 (ip), vehicle: Klucel (hydroxypropylcellulose) (HPC) 100 % of control

NCCC(=O)OC1CCCc2c(O)c3c(c(O)c21)C(=O)c1ccccc1C3=O (centres undefined)
inactive: dose: 12.5 mg/kg/injection, schedule: Q04DX003 (ip), vehicle: saline 93 % of control | dose: 25.0 mg/kg/injection, schedule: Q01DX009 (ip), vehicle: saline 93 % of control | dose: 25.0 mg/kg/injection, schedule: Q04DX003 (ip), vehicle: saline 95 % of control | dose: 50.0 mg/kg/injection, schedule: Q01DX009 (ip), vehicle: saline 97 % of control | dose: 50.0 mg/kg/injection, schedule: Q04DX003 (ip), vehicle: saline 98 % of control | dose: 100.0 mg/kg/injection, schedule: Q04DX003 (ip), vehicle: saline 102 % of control

O=P(NC12CC3CC(CC(C3)C1)C2)(Oc1ccccc1Cl)Oc1ccccc1Cl
inactive: [16] 101 % of control | [17] 101 % of control | [18] 95 % of control

COC1OC(CI)C(OC(C)=O)C(OC(C)=O)C1OC(C)=O (centres undefined)
inactive: dose: 50.0 mg/kg/injection, schedule: Q04DX002 (ip), vehicle: Klucel (hydroxypropylcellulose) (HPC) 94 % of control | [5] 94 % of control | [6] 97 % of control

NC(=O)C1C(c2ccccc2)C1c1ccccc1 (centres undefined)
inactive: [5] 97 % of control | [6] 102 % of control | [7] 94 % of control

On1nnc2ccc(Cl)cc21
inactive: [8] 95 % of control | [9] 95 % of control | [14] 102 % of control

NC(N)=N/C(N)=N/Nc1ccc([N+](=O)[O-])cc1[N+](=O)[O-]
inactive: dose: 12.5 mg/kg/injection, schedule: Q04DX002 (ip), vehicle: saline with Tween-80 98 % of control | dose: 25.0 mg/kg/injection, schedule: Q04DX002 (ip), vehicle: saline with Tween-80 93 % of control | dose: 100.0 mg/kg/injection, schedule: Q04DX002 (ip), vehicle: saline with Tween-80 88 % of control

CN(C)/N=C(\CBr)c1ccc(Br)cc1
inactive: dose: 50.0 mg/kg/injection, schedule: Q01DX009 (ip), vehicle: saline with Tween-80 96 % of control | [12] 107 % of control | [13] 89 % of control
